Results published in ChEMBL document CHEMBL1938245, “aza-Flavanones as potent cross-species microRNA inhibitors that arrest cell cycle” (Bioorg Med Chem Lett, 2012).
Calls of active or inactive are those of the source. The rule behind the calls is not given here.

Key:
[1] = system: Nucleic Acid; test: Inhibition of miR-4644 in human MCF7 cells assessed as increase in luminescence at 4 uM after 24 hrs by luciferase reporter gene assay relative to control; format: cell-based
[2] = system: Nucleic Acid; test: Inhibition of miR-4644 in human HeLa cells assessed as increase in luminescence at 4 uM after 24 hrs by luciferase reporter gene assay relative to control; format: cell-based
[3] = system: Nucleic Acid; test: Inhibition of miR-4644 in human MCF7 cells assessed as reduction in luminescence at 4 uM after 24 hrs by luciferase reporter gene assay relative to control; format: cell-based
[4] = system: Nucleic Acid; test: Inhibition of miR-4644 in human HeLa cells assessed as reduction in luminescence at 4 uM after 24 hrs by luciferase reporter gene assay relative to control; format: cell-based
[5] = system: MCF-10A; test: Cytotoxicity against human MCF10A cells; format: cell-based
[6] = system: MCF7; test: Cell cycle arrest in human MCF7 cells assessed as accumulation at G2/M phase at 4 uM after 24 hrs using propidium iodide staining by flow cytometry (reference value: 11%); format: functional
[7] = system: Nucleic Acid; test: Inhibition of mature-miR-4644 expression in human MCF7 cells at 4 uM after 10 mins by qRT-PCR analysis; format: cell-based
[8] = system: Drosophila; test: Down regulation of miR-3 in Drosophila larvae at 50 uM, po by qRT-PCR analysis relative to control; format: functional, organism-based
[9] = system: MCF7; test: Cell cycle arrest in human MCF7 cells assessed as accumulation at G0/G1 phase at 4 uM after 24 hrs using propidium iodide staining by flow cytometry (reference value: 79%); format: functional
[10] = system: MCF7; test: Ratio of IC50 for HEK cells to IC50 for human MCF7 cells
[11] = system: MCF7; test: Ratio of IC50 for human MCF10A cells to IC50 for human MCF7 cells
[12] = system: Nucleic Acid; test: Inhibition of pri-miR-4644 expression in human MCF7 cells at 4 uM after 10 mins by qRT-PCR analysis; format: cell-based
[13] = system: Nucleic Acid; test: Inhibition of miR14 in Drosophila melanogaster S2 cells at 4 uM after 24 hrs by luciferase reporter gene assay; format: cell-based
[14] = system: Nucleic Acid; test: Inhibition of Pri-miR-4644 expression in human HeLa cells at 4 uM after 10 mins by qRT-PCR analysis; format: cell-based
[15] = system: Drosophila; test: Inhibition of miR-14 in transgenic Drosophila larvae assessed as increase in fluorescence in wing disc at 50 uM, po by EGFP reporter gene assay using confocal microscopy relative to control; format: functional, organism-based
[16] = system: Drosophila; test: Down regulation of miR-14 in Drosophila larvae at 50 uM, po by qRT-PCR analysis relative to control; format: functional
[17] = system: Drosophila; test: Inhibition of miR-14 in transgenic Drosophila larvae expressing EGFP assessed as increase in EGFP protein expression in wing disc at 50 uM, po by Western blot analysis relative to control; format: functional, organism-based
[18] = system: Nucleic Acid; test: Inhibition of mature-miR-4644 expression in human HeLa cells at 4 uM after 10 mins by qRT-PCR analysis; format: cell-based
[19] = Cytotoxicity against HEK cells; format: cell-based; settings: human, hek293
[20] = system: Nucleic Acid; test: Inhibition of miR-30A in human HeLa cells assessed as increase in luminescence at 4 uM after 24 hrs by luciferase reporter gene assay relative to control; format: cell-based
[21] = system: Drosophila; test: Down regulation of pri-miR-14 in Drosophila larvae at 50 uM, po by qRT-PCR analysis relative to control; format: functional, organism-based
[22] = system: Drosophila; test: Down regulation of mature-miR-14 in Drosophila larvae at 50 uM, po by qRT-PCR analysis relative to control; format: functional, organism-based
[23] = system: MCF7; test: Cell cycle arrest in human MCF7 cells assessed as accumulation at S phase at 4 uM after 24 hrs using propidium iodide staining by flow cytometry (reference value: 9%); format: functional

COc1ccc(C2CC(=O)c3ccccc3N2)cc1 (stereo unspecified)
inhibition [1]: inactive | inhibition [2]: inactive

Cc1cc(C)c(C2CC(=O)c3ccccc3N2)c(C)c1 (stereo unspecified)
inhibition [3]: 21% | inhibition [4]: 56%

O=C1CC(c2ccc(Br)cc2)Nc2ccccc21 (stereo unspecified)
Activity [5]: Non-toxic | fold change (FC) [1]: 3 | Activity [6]: 7% | inhibition [7]: 20% | Activity [8]: inactive | Activity [9]: 83% | Ratio IC50 [10]: 2 | Ratio IC50 [11]: 3 | fold change (FC) [2]: 3 | inhibition [12]: 20% | inhibition [13]: Active | inhibition [14]: 20% | inhibition [15]: Active | fold change (FC) [16]: 5 | inhibition [17]: Active | inhibition [18]: 20% | Activity [19]: Non-toxic | inhibition [20]: inactive | Activity [21]: Active | Activity [22]: Active | Activity [23]: 9%

CC(=O)Oc1ccc(C2CC(=O)c3ccccc3N2)c(OC(C)=O)c1 (stereo unspecified)
inhibition [3]: 21% | inhibition [4]: 56%

O=C1CC(c2c[nH]c3ccccc23)Nc2ccccc21 (stereo unspecified)
inhibition [3]: 21% | inhibition [4]: 56%

O=C1CC(c2ccc(O)cc2O)Nc2ccccc21 (stereo unspecified)
Activity [5]: Non-toxic | fold change (FC) [1]: 3 | Activity [6]: 7% | inhibition [7]: 20% | Activity [8]: inactive | Activity [9]: 85% | Ratio IC50 [10]: 2 | Ratio IC50 [11]: 3 | fold change (FC) [2]: 3 | inhibition [12]: 20% | inhibition [13]: Active | inhibition [14]: 20% | inhibition [15]: Active | fold change (FC) [16]: 5 | inhibition [17]: Active | inhibition [18]: 20% | Activity [19]: Non-toxic | inhibition [20]: inactive | Activity [21]: Active | Activity [22]: Active | Activity [23]: 8%

Cc1ccc(S(=O)(=O)Oc2ccc(C3CC(=O)c4ccccc4N3)c(OS(=O)(=O)c3ccc(C)cc3)c2)cc1 (stereo unspecified)
inhibition [3]: 21% | inhibition [4]: 56%

O=C1CC(c2ccccc2)Nc2ccccc21 (stereo unspecified)
inhibition [1]: inactive | inhibition [2]: inactive

O=C1CC(c2ccc(-c3ccoc3)cc2)Nc2ccccc21 (stereo unspecified)
inhibition [3]: 21% | inhibition [4]: 56%
